Test system: primary mouse microglia
Experiment: Phagocytosis in primary mouse microglia
Type: cell-based
Details: pHrodo-myelin
Method: Activity of Compound 9 in primary mouse microglia. Cortical tissue from C57BL/6J neonatal mice (P0-P3) was homogenized in Dulbecco's Modified Eagle Medium (DMEM), filtered through 250 and 100 μm mesh, and cultured in Advanced DMEM/F12 supplemented with 10% fetal bovine serum, 1× GlutaMAX and 1× Penicillin/Streptomycin. At 21 days in vitro (DIV), the cultures were subjected to mild trypsinization using 0.083% Trypsin-EDTA in DMEM for 30 mins to detach an intact layer of astrocytes. The microglia attached to the bottom were used as described in pHrodo-myelin phagocytosis assay to measure phagocytosis and cell health. The activity of Compound 10 in primary mouse microglia was obtained in a similar manner to Compound 9. Cortical tissue from C57BL/6J neonatal mice (P0-P3) was homogenized in Dulbecco's Modified Eagle Medium (DMEM), filtered through 250 and 100 μm mesh, and cultured in Advanced DMEM/F12 supplemented with 10% fetal bovine serum, 1× GlutaMAX and 1× Penicillin/Streptomycin. At 21 days in vitro (DIV), the cultures were subjected to mild trypsinization using 0.083% Trypsin-EDTA in DMEM for 30 mins to detach an intact layer of astrocytes. The microglia attached to the bottom were used as described in Example 13 to measure myelin phagocytosis and cell health. The results are depicted in FIG. 3. Primary Mouse Microglia of compound 10 was obtained in a similar manner to compound 9. The results are depicted in FIG. 3.

SMILES | EC50 | increased phagocytosis
Cl.Clc1ccccc1COc1cncc(-c2cnn(C3CCNCC3)c2)c1 [Compound 9, 3-((2-chlorobenzyl)oxy)-5-(1-(piperidin-4-yl)-1H-pyrazol-4-yl)pyridine hydrochloride] | 1300 nM | 1.8 fold
Cl.Clc1ccc(COc2cncc(-c3cnn(C4CCNCC4)c3)c2)c(Cl)c1 [Compound 10, 3-((2,4-dichlorobenzyl)oxy)-5-(1-(piperidin-4-yl)-1H-pyrazol-4-yl)pyridine hydrochloride] | 540 nM | 1.5 fold

Source: patent US20260242352A1, “INHIBITION OF SHIP1 AS A THERAPEUTIC STRATEGY FOR THE TREATMENT OF ALZHEIMER'S DISEASE” (The Trustees of Indiana University, priority 2022, published 2026)
